Experiment [1] has as its target T1, NHE3 (UniProt P48764).
T1 sequence (P48764 1-834): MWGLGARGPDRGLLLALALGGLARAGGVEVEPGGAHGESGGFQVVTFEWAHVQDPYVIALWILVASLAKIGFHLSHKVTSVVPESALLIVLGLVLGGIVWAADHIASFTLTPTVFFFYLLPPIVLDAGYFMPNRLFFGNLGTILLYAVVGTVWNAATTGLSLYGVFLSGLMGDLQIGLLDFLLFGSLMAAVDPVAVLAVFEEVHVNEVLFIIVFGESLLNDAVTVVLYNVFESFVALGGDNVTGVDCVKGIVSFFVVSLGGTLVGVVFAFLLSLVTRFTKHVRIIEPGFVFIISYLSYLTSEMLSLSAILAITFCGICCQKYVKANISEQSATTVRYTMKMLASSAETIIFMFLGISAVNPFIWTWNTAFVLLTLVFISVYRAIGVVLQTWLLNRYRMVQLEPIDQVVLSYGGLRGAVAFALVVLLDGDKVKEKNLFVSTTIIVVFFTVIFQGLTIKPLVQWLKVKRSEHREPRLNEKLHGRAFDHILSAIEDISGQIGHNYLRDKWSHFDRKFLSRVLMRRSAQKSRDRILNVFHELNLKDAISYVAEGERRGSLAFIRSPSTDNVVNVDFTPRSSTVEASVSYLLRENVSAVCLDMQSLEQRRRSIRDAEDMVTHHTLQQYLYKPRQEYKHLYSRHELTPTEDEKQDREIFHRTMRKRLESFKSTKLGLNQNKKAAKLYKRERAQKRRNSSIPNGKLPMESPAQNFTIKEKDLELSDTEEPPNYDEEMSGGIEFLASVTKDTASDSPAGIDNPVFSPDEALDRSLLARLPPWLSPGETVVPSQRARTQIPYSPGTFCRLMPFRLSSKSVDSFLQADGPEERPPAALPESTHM
Briefly: Cell-based NHE3 activity under transient conditions (BCECF-AM intracellular pH, FLIPR). Set-up: species or system Rat or Human. The note with it: embodiment compounds, opossum kidney cells expressing NHE3, read-out: Cell-based NHE3 inhibition IC50 (uM) under transient conditions. The source says:
(§1) Opossum kidney (OK) cells were obtained from ATCC and cultured and expanded according to its instructions. OK monoclonal stable cell lines expressing the Rat NHE3 (Gene Bank registration number: M85300) protein and OK monoclonal stable cell lines expressing the Human NHE3 (Gene Bank registration number: NM_004174.1) protein were constructed by lentivirus infection.
The general procedure of the cell-based NHE3 activity experiments under transient conditions (transient inhibition) was based on an adaptation method of the pH-sensitive dye method originally reported by Tisen (Proc. Natl. Acad. Sci. USA) (1984) 81(23):7436-7440) to measure rat NHE3-mediated Na+-dependent reverse H+ transport, and was optimized according to the instructions “Measuring Intracellular pH With the FLIPR and FLIPR 384 Fluorometric Imaging Plate Reader Systems” published by Molecular Devices. The specific method was: Rat NHE3 OK monoclonal cells or Human NHE3 OK monoclonal cells were inoculated into 384-well plates and grew overnight. The medium was aspirated from the wells and the cells were washed twice with FLIPR buffer (Hank's BSS 1×, 20 mM HEPES, 1% BSA) followed by incubation with FLIPR buffer (Hank's BSS 1×, 20 mM HEPES, 1% BSA) containing […] BCECF-AM (Invitrogen) for 45 min at room temperature. Subsequently, […] of 200 mM NH4Cl-HEPES buffer (Hank's BSS 1×, 20 mM HEPES, 200 mM NH4Cl) was added and the cells were incubated for 15-20 minutes at room temperature. Cells were washed twice with 20 mM NH4Cl-HEPES buffer (Hank's BSS 1×, 20 mM HEPES, 20 mM NH4Cl). NHE3-mediated pH sensitization in cells was normalized by addition of containing 0.4 mM amiloride (EIPA) and […] test compound or Na-HEPES buffer (100 mM NaCl, 50 mM HEPES, 10 mM glucose, 5 mM KCl, 2 mM CaCl2), 1 mM MgCl2, pH 7.4) and monitoring of BCECF-AM fluorescence at λem 535 nm excitated by λex 440 nm and λex 490 nm respectively. Ratio=fluorescence value (λex 490 nm)/fluorescence value (λex 440 nm) was set, the average value of the Ratio difference between the end time and the start time between the duplicate wells was calculated, the average value and the concentration value of the compound were drawn, and Graphpad Prism software was used to estimate IC50 value.

Experiment [2] deals with T1, NHE3. Nature of the experiment: Cell-based NHE3 activity under persistent conditions (60 min pre-incubation, compound removed). Set-up: species or system Rat or Human. The settings on record: opossum kidney cells expressing NHE3, read-out: Cell-based NHE3 inhibition IC50 (uM) under persistent conditions.
Excerpt: as §1
The general procedure of the cell-based NHE3 activity assay under persistent conditions (persistent inhibition) was: Rat NHE3 OK monoclonal cells or Human NHE3 OK monoclonal cells were inoculated into 384-well plates and grew overnight. The medium was aspirated from the wells and the cells were washed twice with FLIPR buffer (Hank's BSS 1×, 20 mM HEPES, 1% BSA) followed by the addition of Na-HEPES buffer containing […] test compound (100 mM NaCl, 50 mM HEPES, 10 mM glucose, 5 mM KCl, 2 mM CaCl2, 1 mM MgCl2, pH 7.4) and incubated for 60 minutes at room temperature. The compounds were aspirated from the wells and incubated with FLIPR buffer (Hank's BSS 1×, 20 mM HEPES, 1% BSA) containing […] BCECF-AM (Invitrogen) for 45 minutes at room temperature. Subsequently, […] of 200 mM NH4Cl-HEPES buffer (Hank's BSS 1×, 20 mM HEPES, 200 mM NH4Cl) was added and incubated for 15-20 minutes at room temperature. The cells were washed twice with 20 mM NH4Cl-HEPES buffer (Hank's BSS 1×, 20 mM HEPES, 20 mM […]). […] Ratio=fluorescence value (λex 490 nm)/fluorescence value (λex 440 nm) was set, the average value of the Ratio difference between the end time and the start time between the duplicate wells was calculated, the average value and the concentration value of the compound were drawn, and the dose-response-inhibition (four parameters) equation was used to estimate EC50 value by GraphpadPrism.

In general, IC50 refers to the concentration that gives 50% inhibition. Take `CN1Cc2c(Cl)cc(Cl)cc2C(c2ccc3c(c2)S(=O)(=O)N(CCOCCOCCNC(=O)NCCCCNC(=O)NCCOCCOCCN2Cc4ccc(C5CN(C)Cc6c(Cl)cc(Cl)cc65)cc4S2(=O)=O)C3)C1` (stereo not shown) [Embodiment A1]: the IC50 on NHE3 [1] is 0.43 µM; on NHE3 [2] it was 0.5 µM.
For the compound `CN1Cc2c(Cl)cc(Cl)cc2C(c2ccc3cnn(CCOCCOCCNC(=O)NCCCCNC(=O)NCCOCCOCCn4ncc5ccc(C6CN(C)Cc7c(Cl)cc(Cl)cc76)cc54)c3c2)C1` (stereo not shown) [Embodiment D1-P2], the values for the IC50 on NHE3 [1] and at NHE3 [2] were 2.33 µM and 3.61 µM, respectively.
`CN1Cc2c(Cl)cc(Cl)cc2C(c2ccc3c(c2)C(=O)N(CCOCCOCCNC(=O)O[C@@H]2COC4C2OC[C@H]4OC(=O)NCCOCCOCCN2Cc4ccc(C5CN(C)Cc6c(Cl)cc(Cl)cc65)cc4C2=O)C3)C1` (stereo partly shown) [Embodiment G1]: the IC50 on NHE3 [1] came out at 0.93 µM; at NHE3 [2] it was 0.1 µM.
For `CN1Cc2c(Cl)cc(Cl)cc2C(c2ccc3c(c2)C(=O)N(CCOCCOCCNC(=O)Nc2ccc(NC(=O)NCCOCCOCCN4Cc5ccc(C6CN(C)Cc7c(Cl)cc(Cl)cc76)cc5C4=O)cc2)C3)C1` (stereo not shown) [Embodiment H2], the IC50 on NHE3 [1] was 0.48 µM; on NHE3 [2] it was 0.06 µM.
Taken in the same sequence, the figures for `CN1Cc2c(Cl)cc(Cl)cc2C(c2ccc3ccn(CCOCCOCCNC(=O)NCCCCNC(=O)NCCOCCOCCn4ccc5ccc(C6CN(C)Cc7c(Cl)cc(Cl)cc76)cc5c4=O)c(=O)c3c2)C1` (stereo not shown) [Embodiment B5] were 0.23 µM and 0.57 µM.
On to `CN1Cc2c(Cl)cc(Cl)cc2C(c2ccc3c(c2)C(=O)N(CCOCCOCCNC(=O)NC2CCC(NC(=O)NCCOCCOCCN4Cc5ccc(C6CN(C)Cc7c(Cl)cc(Cl)cc76)cc5C4=O)CC2)C3)C1` (stereo not shown) [Embodiment H1], for which the results for the IC50 on NHE3 [1] and at NHE3 [2] were 0.91 µM and 0.04 µM, respectively.
Taken in the same sequence, the figures for `CN1Cc2c(Cl)cc(Cl)cc2C(c2ccc3c(c2)C(=O)N(CCOCCOCCOCCNC(=O)CCC(N)(CCC(=O)NCCOCCOCCOCCN2Cc4ccc(C5CN(C)Cc6c(Cl)cc(Cl)cc65)cc4C2=O)CCC(=O)NCCOCCOCCOCCN2Cc4ccc(C5CN(C)Cc6c(Cl)cc(Cl)cc65)cc4C2=O)C3)C1` (stereo not shown) [Embodiment I3] were 0.19 µM and 0.13 µM.
Taken in the same sequence, the figures for `CN1Cc2c(Cl)cc(Cl)cc2C(c2ccc3cn(CCOCCOCCNC(=O)NCCCCNC(=O)NCCOCCOCCn4cc5ccc(C6CN(C)Cc7c(Cl)cc(Cl)cc76)cc5n4)nc3c2)C1` (stereo not shown) [Embodiment D1-P1] were 0.28 µM and 0.02 µM.
